In ChEMBL document CHEMBL1148862, “Evaluation of the anti-hepatitis C virus effect of novel potent, selective, and orally bioavailable JNK and VEGFR kinase inhibitors” (Bioorg Med Chem Lett, 2007):

Tests used:
[1] = Cytotoxicity against Huh7 cells by luciferase assay; format: cell-based, Huh-7; details: human
[2] = Cytotoxicity against MT4 cells by luciferase assay; format: cell-based; details: human
Hepatitis C virus = assay: Antiviral activity against HCV in Huh7-Rep cells by luciferase assay; format: functional, organism-based, Hepacivirus hominis

Oc1nc(-c2cc(Cl)ccc2F)nc2nccnc12
CC50 [1]: > 25 µM
CC50 [2]: > 25 µM
EC50 (Hepatitis C virus): > 50 µM

Cc1ccccc1Nc1nc(-c2cc(Br)ccc2F)nc2nccnc12
CC50 [1]: > 32 µM
CC50 [2]: > 32 µM
EC50 (Hepatitis C virus): 6.4 µM

COc1cnc(-c2cc(Cl)ccc2F)nc1Nc1ccncc1C(=O)NCCCn1ccnc1
CC50 [1]: 15.3 µM
CC50 [2]: 8.1 µM
EC50 (Hepatitis C virus): 0.92 µM

CCOC(=O)CNC(=O)c1cnccc1Nc1nc(-c2cc(Cl)ccc2F)ncc1OC
CC50 [1]: > 32 µM
CC50 [2]: > 32 µM
EC50 (Hepatitis C virus): 4.6 µM

Fc1ccc(Br)cc1-c1nc(N(Cc2ccccc2)c2ccncc2)c2nccnc2n1
CC50 [1]: > 32 µM
CC50 [2]: > 32 µM
EC50 (Hepatitis C virus): 0.99 µM

CCCCN(c1ccncc1)c1nc(-c2cc(Br)ccc2F)nc2nccnc12
CC50 [1]: > 32 µM
CC50 [2]: > 32 µM
EC50 (Hepatitis C virus): 2.2 µM

Cc1cnccc1Nc1nc(-c2cc(Cl)ccc2F)nc2nccnc12
CC50 [1]: > 32 µM
CC50 [2]: > 32 µM
EC50 (Hepatitis C virus): 2 µM
